2 molecules from publication PMC8213057, “Targeting ALK2: An Open Science Approach to Developing Therapeutics for the Treatment of Diffuse Intrinsic Pontine Glioma” (Journal of Medicinal Chemistry, 2020) can be followed below.

The target of assay [1] is PKCtheta (Homo sapiens, UniProt Q04759). The conditions noted are these: 1 μM; Run 1, Run 2.
Assay [2] has as its target FER (Homo sapiens, UniProt P16591). Nature of the assay: biochemical. As to conditions: read-out: % enzyme activity, 1 μM; Run 1, Run 2.
In assay [3] the target is T1, ULK2 (Homo sapiens, UniProt Q8IYT8).
T1 sequence (Q8IYT8 1-1036): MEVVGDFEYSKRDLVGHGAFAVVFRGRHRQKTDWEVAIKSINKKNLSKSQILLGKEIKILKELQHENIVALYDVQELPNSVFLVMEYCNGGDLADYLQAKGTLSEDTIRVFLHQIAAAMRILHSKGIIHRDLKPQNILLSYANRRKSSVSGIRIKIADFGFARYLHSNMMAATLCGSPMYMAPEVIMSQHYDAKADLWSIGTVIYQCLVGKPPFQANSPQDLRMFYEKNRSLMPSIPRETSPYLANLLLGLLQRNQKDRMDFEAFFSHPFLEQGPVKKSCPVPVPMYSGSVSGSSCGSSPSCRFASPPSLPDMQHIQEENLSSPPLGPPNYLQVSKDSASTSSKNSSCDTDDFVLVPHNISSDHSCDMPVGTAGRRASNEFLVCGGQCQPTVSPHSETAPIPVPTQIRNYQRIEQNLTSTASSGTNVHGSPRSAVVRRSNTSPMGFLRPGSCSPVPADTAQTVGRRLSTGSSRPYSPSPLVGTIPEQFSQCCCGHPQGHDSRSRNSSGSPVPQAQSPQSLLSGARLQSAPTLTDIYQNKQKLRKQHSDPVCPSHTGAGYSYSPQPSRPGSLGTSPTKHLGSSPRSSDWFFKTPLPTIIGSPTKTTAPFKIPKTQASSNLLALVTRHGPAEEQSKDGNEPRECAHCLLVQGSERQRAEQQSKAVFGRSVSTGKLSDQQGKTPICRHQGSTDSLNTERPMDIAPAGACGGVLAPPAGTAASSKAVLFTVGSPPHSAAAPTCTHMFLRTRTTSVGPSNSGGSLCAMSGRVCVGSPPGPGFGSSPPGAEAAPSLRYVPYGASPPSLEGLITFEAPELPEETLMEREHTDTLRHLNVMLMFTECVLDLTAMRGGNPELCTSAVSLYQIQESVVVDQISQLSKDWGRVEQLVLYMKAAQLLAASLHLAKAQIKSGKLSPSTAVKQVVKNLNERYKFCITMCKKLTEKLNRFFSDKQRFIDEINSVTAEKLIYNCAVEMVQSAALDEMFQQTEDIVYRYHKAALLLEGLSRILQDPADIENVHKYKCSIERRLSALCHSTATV
As to conditions: 1 μM; Run 1, Run 2.

In assay [4] the test system is MNK2.
Assay [5] concerns KHS/MAP4K5.
Assay [6] deals with T2, LATS2 (Homo sapiens, UniProt Q9NRM7).
T2 sequence (Q9NRM7 1-1088): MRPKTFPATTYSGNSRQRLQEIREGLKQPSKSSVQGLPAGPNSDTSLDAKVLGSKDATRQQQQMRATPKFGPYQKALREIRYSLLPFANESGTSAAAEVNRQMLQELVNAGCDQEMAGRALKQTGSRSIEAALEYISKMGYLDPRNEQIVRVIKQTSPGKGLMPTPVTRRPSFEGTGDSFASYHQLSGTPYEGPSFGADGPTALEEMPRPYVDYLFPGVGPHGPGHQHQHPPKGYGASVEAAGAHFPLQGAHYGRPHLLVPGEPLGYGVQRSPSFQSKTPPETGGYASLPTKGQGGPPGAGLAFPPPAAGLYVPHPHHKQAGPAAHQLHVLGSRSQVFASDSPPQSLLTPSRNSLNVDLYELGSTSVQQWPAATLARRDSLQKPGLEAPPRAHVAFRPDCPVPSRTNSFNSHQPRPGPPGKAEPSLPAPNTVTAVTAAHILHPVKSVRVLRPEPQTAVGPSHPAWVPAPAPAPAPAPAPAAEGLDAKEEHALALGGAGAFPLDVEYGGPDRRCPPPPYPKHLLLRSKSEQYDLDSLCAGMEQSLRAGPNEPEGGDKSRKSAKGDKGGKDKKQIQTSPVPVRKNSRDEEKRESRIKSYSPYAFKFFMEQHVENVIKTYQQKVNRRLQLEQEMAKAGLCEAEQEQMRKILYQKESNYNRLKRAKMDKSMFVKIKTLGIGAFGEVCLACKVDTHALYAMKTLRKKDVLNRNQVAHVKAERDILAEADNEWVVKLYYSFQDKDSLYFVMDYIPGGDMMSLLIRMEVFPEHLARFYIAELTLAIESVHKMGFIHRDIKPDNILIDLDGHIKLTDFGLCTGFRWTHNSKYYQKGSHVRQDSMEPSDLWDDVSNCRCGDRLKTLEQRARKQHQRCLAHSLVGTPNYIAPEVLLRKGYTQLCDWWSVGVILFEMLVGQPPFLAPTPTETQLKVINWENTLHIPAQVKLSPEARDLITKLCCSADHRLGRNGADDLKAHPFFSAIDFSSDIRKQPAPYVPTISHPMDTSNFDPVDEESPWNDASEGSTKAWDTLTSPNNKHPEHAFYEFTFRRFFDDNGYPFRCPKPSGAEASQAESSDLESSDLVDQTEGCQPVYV
Nature of the assay: biochemical. As to conditions: read-out: % enzyme activity, 1 μM; Run 1, Run 2.

Assay [7] deals with T3, MKK4 (Homo sapiens, UniProt P45985).
T3 sequence (P45985 1-399): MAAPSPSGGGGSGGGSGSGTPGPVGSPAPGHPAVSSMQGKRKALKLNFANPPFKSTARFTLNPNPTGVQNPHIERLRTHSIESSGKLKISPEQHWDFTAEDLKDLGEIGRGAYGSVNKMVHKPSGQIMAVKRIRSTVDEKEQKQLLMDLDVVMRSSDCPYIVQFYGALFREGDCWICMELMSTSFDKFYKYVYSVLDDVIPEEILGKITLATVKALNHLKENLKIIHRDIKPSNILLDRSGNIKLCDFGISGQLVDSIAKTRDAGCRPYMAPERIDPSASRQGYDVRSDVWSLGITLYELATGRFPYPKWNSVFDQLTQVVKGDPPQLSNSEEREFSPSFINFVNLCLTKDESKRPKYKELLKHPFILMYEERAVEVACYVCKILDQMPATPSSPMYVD
As to conditions: 1 μM; Run 1, Run 2.

Values joined by “and” are separate entries in the source; they are usually repeats but may differ in a detail not shown here. Identical values can stand only once.

FER, sequence (P16591 whole entry): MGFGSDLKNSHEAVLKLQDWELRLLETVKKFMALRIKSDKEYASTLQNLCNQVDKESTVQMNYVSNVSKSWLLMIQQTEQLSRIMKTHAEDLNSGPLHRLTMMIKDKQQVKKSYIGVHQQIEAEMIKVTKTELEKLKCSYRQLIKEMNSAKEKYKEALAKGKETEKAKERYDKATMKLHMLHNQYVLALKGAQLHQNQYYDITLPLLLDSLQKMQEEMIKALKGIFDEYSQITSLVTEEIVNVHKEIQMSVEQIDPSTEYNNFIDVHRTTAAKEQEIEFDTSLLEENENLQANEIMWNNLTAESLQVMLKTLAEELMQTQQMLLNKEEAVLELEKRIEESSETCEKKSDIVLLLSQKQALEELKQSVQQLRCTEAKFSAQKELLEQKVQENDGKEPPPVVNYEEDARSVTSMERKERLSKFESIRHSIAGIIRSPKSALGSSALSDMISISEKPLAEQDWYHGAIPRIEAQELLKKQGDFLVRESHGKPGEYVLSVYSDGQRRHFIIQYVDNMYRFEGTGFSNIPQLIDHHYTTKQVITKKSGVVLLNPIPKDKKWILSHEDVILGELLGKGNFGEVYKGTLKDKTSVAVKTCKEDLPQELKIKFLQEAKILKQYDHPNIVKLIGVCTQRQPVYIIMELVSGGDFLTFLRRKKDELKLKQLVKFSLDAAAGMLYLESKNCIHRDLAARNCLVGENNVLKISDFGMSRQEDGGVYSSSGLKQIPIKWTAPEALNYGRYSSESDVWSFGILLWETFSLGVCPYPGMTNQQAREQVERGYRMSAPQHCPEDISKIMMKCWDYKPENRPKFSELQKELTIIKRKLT
PKCtheta, sequence (Q04759 whole entry): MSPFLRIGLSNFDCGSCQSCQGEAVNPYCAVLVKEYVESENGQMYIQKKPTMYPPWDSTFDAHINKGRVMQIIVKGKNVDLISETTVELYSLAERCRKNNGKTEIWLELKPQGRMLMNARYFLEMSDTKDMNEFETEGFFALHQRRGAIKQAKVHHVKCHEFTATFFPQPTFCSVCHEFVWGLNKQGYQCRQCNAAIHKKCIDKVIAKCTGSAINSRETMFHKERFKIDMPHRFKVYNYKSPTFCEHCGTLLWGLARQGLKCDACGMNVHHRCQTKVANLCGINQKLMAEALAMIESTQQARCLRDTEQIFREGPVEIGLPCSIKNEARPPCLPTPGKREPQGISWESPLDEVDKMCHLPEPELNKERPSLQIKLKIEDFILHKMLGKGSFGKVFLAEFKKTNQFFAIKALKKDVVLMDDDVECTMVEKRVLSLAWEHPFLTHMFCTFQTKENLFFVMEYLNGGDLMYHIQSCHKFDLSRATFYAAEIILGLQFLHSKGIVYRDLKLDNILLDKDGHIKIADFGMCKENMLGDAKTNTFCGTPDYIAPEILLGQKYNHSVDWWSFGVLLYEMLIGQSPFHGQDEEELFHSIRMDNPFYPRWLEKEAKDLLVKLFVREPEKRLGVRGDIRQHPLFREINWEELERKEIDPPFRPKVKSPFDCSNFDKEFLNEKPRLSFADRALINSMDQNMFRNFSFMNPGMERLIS

For the molecule `COc1cc(-c2cncc(-c3ccc(N4CCN(C)CC4)cc3)c2C)cc(F)c1C(N)=O` [Compound 26a, 2-Fluoro-6-methoxy-4-(4-methyl-5-(4-(4-methylpiperazin-1-yl)phenyl)pyridin-3-yl)benzamide], the “% enzyme activity” value in assay [1] was 81.31%; in assay [3], 73.24%; in assay [7], 98.66%. Also, the remaining activity at 1 µM stood at 89.2% in assay [2] and 106% in assay [6]. For the same molecule, the % enzyme activity at 1 μM in assay [4] was 48.2%; in assay [5] it was 39.7% and 39.3%.

Consider `COc1cc(-c2cncc(-c3ccc(N4C[C@@H](C)N(C)[C@@H](C)C4)cc3)c2C)cc(F)c1C(N)=O` [Compound 26c, 2-Fluoro-6-methoxy-4-(4-methyl-5-(4-((3R,5S)-3,4,5-trimethylpiperazin-1-yl)phenyl)pyridin-3-yl)benzamide], for which the results for the “% enzyme activity” value in assay [1], in assay [3] and in assay [7] were 84.96%, 84.46% and 93.94%, respectively. Further, the remaining activity at 1 µM in assay [2] came out at 86%; in assay [6], 102%. Besides, the % enzyme activity at 1 μM in assay [4] was 70.8% and 68.3%; in assay [5], 41.7% and 40.6%.
